What is called IC50 is the concentration at which inhibition is half-maximal.

For the assay, the target named is human CB1R (Homo sapiens (Human), UniProt P21554). As to the kind of experiment: CB1 cAMP (Assay 2): in vitro testing of CB1 potency. It counts as cell-based. The note with it: CHO cells expressing human CB1R; inhibition of forskolin-stimulated cAMP.
Sequence of human CB1R (P21554 whole entry): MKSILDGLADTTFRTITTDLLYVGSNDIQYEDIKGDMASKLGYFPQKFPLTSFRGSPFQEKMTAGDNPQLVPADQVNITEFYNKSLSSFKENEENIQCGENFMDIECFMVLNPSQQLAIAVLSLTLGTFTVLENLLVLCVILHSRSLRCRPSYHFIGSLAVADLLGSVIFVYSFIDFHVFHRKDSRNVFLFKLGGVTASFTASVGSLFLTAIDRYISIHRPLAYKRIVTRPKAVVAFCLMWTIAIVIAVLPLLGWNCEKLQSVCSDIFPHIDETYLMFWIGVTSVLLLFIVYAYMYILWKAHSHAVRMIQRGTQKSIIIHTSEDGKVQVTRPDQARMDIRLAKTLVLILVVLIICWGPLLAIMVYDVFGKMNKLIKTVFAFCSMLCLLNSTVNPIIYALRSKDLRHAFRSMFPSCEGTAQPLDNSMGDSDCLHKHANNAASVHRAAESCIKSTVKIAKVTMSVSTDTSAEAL
The molecule `CC(C)(CO)c1cc(NC(=O)C(C)(C)S(=O)(=O)CC2CCOCC2)on1` [Example 1 in WO2010036630] registered an IC50 of over 50 µM.
Molecule `CC(C)(C#N)c1cc(NC(=O)C(C)(C)S(=O)(=O)CCCC(F)(F)F)on1` [Example 1, N-[3-(Cyano-dimethyl-methyl)-isoxazol-5-yl]-2-methyl-2-(4,4,4-trifluoro-butane-1-sulfonyl)-propionamide] came in with an IC50 of 104 µM.
`CC(C)(CO)c1cc(NC(=O)C(C)(C)S(=O)(=O)C2CCOCC2)on1` [Example 2 in WO2010036630] returned an IC50 of 150 µM.
`CC(C)(C#N)c1cc(NC(=O)C(C)(C)S(=O)(=O)CC2CCOCC2)on1` [Example 2, N-[3-(Cyano-dimethyl-methyl)-isoxazol-5-yl]-2-methyl-2-(tetrahydro-pyran-4-ylmethanesulfonyl)-propionamide]: the IC50 was over 200 µM.
The value for `CC(C)(C#N)c1cc(NC(=O)C(C)(C)S(=O)(=O)C2CCOCC2)on1` [Example 3] was over 200 µM; that for `CN(CC1CCOCC1)C(C)(C)C(=O)Nc1cc(C(C)(C)C#N)no1` [Example 4] was 39.4 µM; that for `CN(C1CCN(S(C)(=O)=O)CC1)C(C)(C)C(=O)Nc1cc(C(C)(C)C#N)no1` [Example 5] was 2.5 µM.
The value for `CC(C)(CO)c1cc(NC(=O)C(C)(C)S(=O)(=O)CCCC(F)(F)F)on1` [Example 7 in WO2010036630] was 28 µM; that for `CN(CC1CCOCC1)C(C)(C)C(=O)Nc1cc(C(C)(C)CO)no1` [Example 7 in WO2010147792] was 8.08 µM.
`CN(CC1CCOCC1)C(C)(C)C(=O)Nc1nnc(C(C)(C)C#N)s1` [Example 7, N-[5-(Cyano-dimethyl-methyl)-[1,3,4]thiadiazol-2-yl]-2-methyl-2-[methyl-(tetrahydro-pyran-4-ylmethyl)-amino]-propionamide] displayed an IC50 of over 200 µM.
Molecule `CN(C1CCN(S(C)(=O)=O)CC1)C(C)(C)C(=O)Nc1nnc(C(C)(C)C#N)s1` [Example 8] had an IC50 of 69 µM.
As for `COCC(C)(C)c1cc(NC(=O)C(C)(C)S(=O)(=O)CC2CCOCC2)on1` [Example 17 in WO2010036630], 8.6 µM corresponded to half-maximal inhibition (IC50).
Molecule `CN(CC1CCOCC1)C(C)(C)C(=O)Nc1nnc(C(C)(C)CO)s1` [Example 30 in WO2010147792] had a half-maximal inhibitory concentration (IC50) of 120 µM.
On to `COCC(C)(C)c1cc(NC(=O)C(C)(C)S(=O)(=O)C2CCOCC2)on1` [Example 38 in WO2010036630], for which half-maximal inhibition (IC50) required 50 µM.
`COCC(C)(C)c1cc(NC(=O)C(C)(C)N(C)CC2CCOCC2)on1` [Example 46 in WO2010147792] displayed an IC50 of 0.923 µM.
`CN(C1CCN(S(C)(=O)=O)CC1)C(C)(C)C(=O)Nc1cc(C(C)(C)CO)no1` [Example 47 in WO2010147792] yielded an IC50 of 3.1 µM.
For the molecule `CC(C)(O)c1cc(NC(=O)C(C)(C)S(=O)(=O)C2CCOCC2)on1` [Example 133 WO2010036630], the IC50 was over 200 µM.
The molecule `CC(C)(O)c1cc(NC(=O)C(C)(C)S(=O)(=O)CCCC(F)(F)F)on1` [Example 134 in WO2010036630] registered an IC50 of 26 µM. That is a double-digit micromolar value.

Values taken from patent publication US11725004B2, “(Cyano-dimethyl-methyl)-isoxazoles and -[1,3,4]thiadiazoles” (Centrexion Therapeutics Corporation, priority 2013, dated 2023).
